# Measured values from patent US11919869B2, “CD73 compounds” (Gilead Sciences, Inc., priority 2021, dated 2024).
# Counter-ions that a name gives are not always drawn. Like-named read-outs stand apart in the source and are kept apart here.
# Assays:
# [1] = Thermodynamic solubility in FaSSIF and FeSSIF; assay type: physicochemical; settings: 20 hours, ambient temperature; for FaSSIF (pH 6.5): fasted-state simulated intestinal fluid pH 6.5; for FeSSIF (pH 5.0): fed-state simulated intestinal fluid pH 5.0
# Protocol: Thermodynamic Solubility in FASSIF and FESSIF.
# The aqueous solubility of compounds over a time of 20 hours was assessed. Solubility was determined at ambient temperature in buffered fasted-state simulated intestinal fluid (FaSSIF, pH 6.5) and buffered fed-state simulated intestinal fluid (FeSSIF, pH 5.0) prepared in-house using BioRelevant Simulated Intestinal Fluid (SIF) powder. Solids were added to FaSSIF or FeSSIF in 1.5-mL Eppendorf tubes, vortexed for 1 minute, then agitated for 20 hours in an Eppendorf ThermoMixer C. To determine concentration in solution, the suspensions were centrifuged for 10 min at 14,800 rpm and supernatants were diluted to a volume of 1 mL with 1:1 v/v acetonitrile:water. All diluted supernatants were analyzed by UPLC using a Waters Acquity UPLC with a PDA UV detector.
# [2] = Kinetic solubility at pH 1 and 7; assay type: physicochemical; settings: 1.0% DMSO; for solubility kinetic at 24 h: 23 °C, kinetic from dmso stock
# Protocol: Kinetic Solubility at pH 1 and 7
# 100-fold dilutions of each compound as DMSO stock solution were prepared by combining 3 μL of DMSO stock with 297 μL of the appropriate media in a Millipore solubility filter plate with 0.45 μM polycarbonate filter membrane using Hamilton Starlet liquid handling. The final DMSO Concentration is 1.0% and maximum theoretical compound concentration is […] (assuming stock concentration of 10 mM). The filter plate was sealed. Following 24-hour incubation at ambient temperature (22.2-23.6° C.), the samples were vacuum filtered, and the filtrates were collected in a 96 well polypropylene plate for analysis. The collection plate was sealed for analysis. Filtrates were injected into the nitrogen detector for quantification. The equimolar nitrogen response of the detector is calibrated using standards which span the dynamic range of the instrument from 0.08 to 4500 μg/ml nitrogen. The filtrates were quantified with respect to this calibration curve. The calculated solubility values are corrected for background nitrogen present in the DMSO, and the media used to prepare the samples
# [3] = In vivo rat pharmacokinetics; settings: rat; Wister Han rats, 100 mg/kg suspension; Comparator C measured in plasma; read-out: Comparator C AUC 0-24 h
# Protocol: In Vivo Rat Pharmacokinetics Experiments
# In vivo Wister Han rat pharmacokinetic experiments of compound Comparator C and Example 4 were assessed as follows.
# Compound Comparator C was dosed as a 100 mg/kg suspension to Wister Han rats (N=3) using the following formulation:30% captisol, 5% soluplus, 65% pH 2 water. Compound 1170997 was dosed separately as a 100 mg-eq/kg (123 mg/kg) solution to Wister Han rats (N=3) using the following formulation: 0.5% Methocel E4M Premium, 0.1% Tween-80, 99.4% Water. Samples were assessed for the presence of Comparator C.
# Comparator C and Example 4. […] As is shown in Table 4, the AUC 0-24 h measured for Comparator C in plasma was higher after dosing with Example 4 than the value measured after dosing with an equivalent dose of Comparator C.
# [4] = target: T1, alkaline phosphatase (intestinal) (Bos taurus, UniProt P19111); assay: Alkaline phosphatase stability assay; assay type: in vitro ADME; settings: 2 μM substrate, 100 ng/mL purified Bovine intestinal alkaline phosphatase, Tris buffer pH 7.8; read-out: ALP half life
# T1 construct: purchased MilliPore Sigma
# T1 sequence (P19111 20-506 limits assumed): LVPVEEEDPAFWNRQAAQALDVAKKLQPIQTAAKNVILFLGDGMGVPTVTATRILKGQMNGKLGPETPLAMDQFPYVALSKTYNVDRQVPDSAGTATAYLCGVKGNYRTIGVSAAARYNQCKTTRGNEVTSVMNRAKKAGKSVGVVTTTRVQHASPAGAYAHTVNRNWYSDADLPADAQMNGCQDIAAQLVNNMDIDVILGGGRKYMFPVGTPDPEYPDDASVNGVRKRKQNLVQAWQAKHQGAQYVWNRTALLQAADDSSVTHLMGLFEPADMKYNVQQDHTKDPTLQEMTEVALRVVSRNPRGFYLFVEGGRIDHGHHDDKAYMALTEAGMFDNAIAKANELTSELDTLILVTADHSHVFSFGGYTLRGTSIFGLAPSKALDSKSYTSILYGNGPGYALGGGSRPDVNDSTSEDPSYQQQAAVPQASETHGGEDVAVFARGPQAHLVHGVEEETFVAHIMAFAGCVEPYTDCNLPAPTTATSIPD
# Protocol: Alkaline Phosphatase Stability Assay
# (§1) Alkaline phosphatase stability assays were carried out using purified Bovine intestinal alkaline phosphatase. Duplicate sets were performed with a TECAN liquid handler. Assay substrate concentrations were 2 μM. Purified Bovine intestinal alkaline phosphatase was acquired through MilliPore Sigma as a lyophilized powder. Reaction mixtures were prepared by the addition of 2 μL compound (400 μM stock solution in DMSO) into wells of a 96-well plate containing […] Tris buffer (100 mM, pH 7.8, 1 mM MgCl2 and 1 mM ZnCl2) with and without 100 ng/mL purified Bovine intestinal alkaline phosphatase. Samples were assessed at time points of 3, 30, 60, 120, 180 and 240 minutes. At each time point, 25 μL of the reaction mixtures were added into a 96-well plate containing 225 μL of quench solution (99% Acetonitrile with 1% Formic Acid and 100 nM Labetalol as internal standard). The plates containing the quench samples were then vortexed at 1100 RPM for 10 minutes and centrifuged at 4500 RPM for 20 minutes. 150 μL of the resulting supernatant was transferred into a 96-well plate containing 150 μL of water and vortexed at 1100 RPM for 3 minutes to mix.
# (§2) Samples were analyzed with a Leap HTC Autosampler and a Dionex UltiMate 3000 HPLC system interfaced to a Thermo Q-Exactive mass spectrometer operating in positive ion electrospray mode. A Thermo Scientific Hypersil GOLD (1.9 μM particle size, 50×2.1 mm) HPLC column was used and mobile phase was pumped at 0.5 mL/min. Elution of analytes was achieved by a series of linear gradients of acetonitrile in water containing 0.1% (v/v) formic acid. Quantification was by analyte/internal standard peak area ratio (PAR).
# [5] = In vivo cyno pharmacokinetics; settings: cynomolgus monkeys
# Protocol: In Vivo Cyno Pharmacokinetics Experiments
# In vivo cyno pharmacokinetic experiments of compound Comparator B and Example 1 were assessed as follows.
# Compound Comparator B hydrochloride salt was dosed as a 30 mg/kg suspension to cynomolgus monkeys (N=3) using the following formulation: 0.5% Methocel E4M Premium, 0.1% Tween-80, 99.4% Water. Compound Comparator B free base was dosed separately as a 12.5 mg/kg (50 mg-fixed) suspension to cynomolgus monkeys (N=3) using the following formulation: 0.5% Methocel E4M Premium, 0.1% Tween-80, 99.4% Water. Compound Example 1 was dosed separately as a 12.5 mg/kg (50 mg-fixed) suspension to cynomolgus monkeys (N=3) using the following formulation: 0.5% Methocel E4M Premium, 0.1% Tween-80, 99.4% Water. […] As is shown in Table 4, the AUC 0-24 h measured for Comparator B in plasma was higher after dosing with Example 1 than the value measured after dosing with an equivalent dose of Comparator B.
# [6] = Assay buffer stability (Tris buffer without alkaline phosphatase); assay type: physicochemical; settings: 2 μM substrate, Tris buffer pH 7.8 without alkaline phosphatase
# Protocol: as §1, §2
# [7] = aqueous buffer, pH 7, 24-hour incubation at ambient temperature, read-out: Kinetic Solubility pH 7
# [8] = simulated gastric fluid, pH 1, 24-hour incubation at ambient temperature, read-out: Kinetic Solubility pH 1
# [9] = pH 1, 24-hour incubation at ambient temperature
# [10] = pH 7, 24-hour incubation at ambient temperature
Compound,FaSSIF (pH 6.5) [1] [ug/mL],FeSSIF (pH 5.0) [1] [ug/mL],"solubility kinetic at 24 h [2, 7] [µM]","solubility kinetic at 24 h [2, 8] [µM]",half-life at 2 µM [4] [min],other results
"CC1(C)CN(c2cc(-c3c[nH]c(=O)[nH]c3=O)nn3ccnc23)CC1(F)F [B, 5-[8-(3,3-difluoro-4,4-dimethyl-pyrrolidin-1-yl)imidazo[1,2-b]pyridazin-6-yl]-1H-pyrimidine-2,4-dione, reference compound]",12,33,5,95,–,–
"5-(7-((1S,2S)-2-(1-(2,2,2-trifluoroethyl)-1H-indazol-6-yl)cyclopropyl)pyrazolo[1,5-a]pyrimidin-5-yl)pyrimidine-2,4(1H,3H)-dione [reference compound]",0.5,11.1,–,–,–,"Kinetic Solubility pH 1 [2, 9]: 65 uM; Kinetic Solubility pH 7 [2, 10]: 7 uM"
"O=c1[nH]cc(-c2cc([C@H]3C[C@@H]3c3ccc4cnn(CC(F)(F)F)c4c3)c3ncc(F)n3n2)c(=O)[nH]1 [Comparator C HCl salt, reference compound]",–,–,–,–,–,AUC(0-t) [3]: 11.2 µM·h
"O=c1c(-c2cc([C@H]3C[C@@H]3c3ccc4cnn(CC(F)(F)F)c4c3)c3ncc(F)n3n2)cn(COP(=O)(O)O)c(=O)n1COP(=O)(O)O [Example 3, (5-(3-fluoro-8-((1S,2S)-2-(1-(2,2,2-trifluoroethyl)-1H-indazol-6-yl)cyclopropyl)imidazo[1,2-b]pyridazin-6-yl)-2,4-dioxopyrimidine-1,3(2H,4H)-diyl)bis(methylene) bis(dihydrogen phosphate)]",–,–,> 100,91,–,–
"5-(3-fluoro-8-((1S,2S)-2-(1-(2,2,2-trifluoroethyl)-1H-pyrazolo[3,4-b]pyridin-6-yl)cyclopropyl)imidazo[1,2-b]pyridazin-6-yl)pyrimidine-2,4(1H,3H)-dione [reference compound]",–,–,–,–,–,"Kinetic Solubility pH 1 [2, 9]: 9 uM; Kinetic Solubility pH 7 [2, 10]: 6 uM"
"CC1(C)CN(c2cc(-c3cn(COP(=O)(O)O)c(=O)[nH]c3=O)nn3ccnc23)CC1(F)F [Example 1, (5-(8-(3,3-difluoro-4,4-dimethylpyrrolidin-1-yl)imidazo[1,2-b]pyridazin-6-yl)-2,4-dioxo-3,4-dihydropyrimidin-1(2H)-yl)methyl dihydrogen phosphate]",>1000,>1000,> 100,> 100,10,"AUC 0-24 h measured for Comparator B in plasma, compared with dosing an equivalent dose of Comparator B ([5]; 12.5 mg/kg (50 mg-fixed) suspension): higher; half-life at 2 µM [6]: > 1580 min"
"O=c1[nH]c(=O)n(COP(=O)(O)O)cc1-c1cc([C@H]2C[C@@H]2c2ccc3cnn(CC(F)(F)F)c3n2)c2ncc(F)n2n1 [Example 5, (5-(3-fluoro-8-((1S,2S)-2-(1-(2,2,2-trifluoroethyl)-1H-pyrazolo[3,4-b]pyridin-6-yl)cyclopropyl)imidazo[1,2-b]pyridazin-6-yl)-2,4-dioxo-3,4-dihydropyrimidin-1(2H)-yl)methyl dihydrogen phosphate]",–,–,86,79,14,half-life at 2 µM [6]: > 1580 min
"O=c1[nH]c(=O)n(COP(=O)(O)O)cc1-c1cc([C@H]2C[C@@H]2c2ccc3cnn(CC(F)(F)F)c3c2)c2nccn2n1 [Example 2, (2,4-dioxo-5-(8-((1S,2S)-2-(1-(2,2,2-trifluoroethyl)-1H-indazol-6-yl)cyclopropyl)imidazo[1,2-b]pyridazin-6-yl)-3,4-dihydropyrimidin-1(2H)-yl)methyl dihydrogen phosphate]",–,–,89,3,11,–
"CC1(C)CN(c2cc(-c3c[nH]c(=O)[nH]c3=O)nn3ccnc23)CC1(F)F [Comparator B HCl salt, 5-[8-(3,3-difluoro-4,4-dimethyl-pyrrolidin-1-yl)imidazo[1,2-b]pyridazin-6-yl]-1H-pyrimidine-2,4-dione, reference compound]",–,–,–,–,–,"AUC(0-t) ([5]; cynomolgus monkey, 120 mg fixed (30 mg/kg) suspension, Comparator B measured in plasma, read-out: Comparator B AUC 0-24 h): 33.2 µM·h"
"5-(8-((1S,2S)-2-(1-(2,2,2-trifluoroethyl)-1H-indazol-5-yl)cyclopropyl)imidazo[1,2-b]pyridazin-6-yl)pyrimidine-2,4(1H,3H)-dione [reference compound]",0.7,12.4,–,–,–,"Kinetic Solubility pH 1 [2, 9]: 72 uM; Kinetic Solubility pH 7 [2, 10]: 10 uM"
"O=c1[nH]cc(-c2cc([C@H]3C[C@@H]3c3ccc4cnn(CC(F)(F)F)c4n3)c3ncc(F)n3n2)c(=O)[nH]1 [E, reference compound]",–,–,8,94,–,–
"O=c1c(-c2cc([C@H]3C[C@@H]3c3ccc4cnn(CC(F)(F)F)c4c3)n3nccc3n2)cn(COP(=O)(O)O)c(=O)n1COP(=O)(O)O [Example 7, (2,4-dioxo-5-(7-((1S,2S)-2-(1-(2,2,2-trifluoroethyl)-1H-indazol-6-yl)cyclopropyl)pyrazolo[1,5-a]pyrimidin-5-yl)pyrimidine-1,3(2H,4H)-diyl)bis(methylene) bis(dihydrogen phosphate)]",–,–,> 100,89,–,–
"O=c1[nH]c(=O)n(COP(=O)(O)O)cc1-c1cc([C@H]2C[C@@H]2c2ccc3cnn(CC(F)(F)F)c3c2)n2nccc2n1 [Example 6, (2,4-dioxo-5-(7-((1S,2S)-2-(1-(2,2,2-trifluoroethyl)-1H-indazol-6-yl)cyclopropyl)pyrazolo[1,5-a]pyrimidin-5-yl)-3,4-dihydropyrimidin-1(2H)-yl)methyl dihydrogen phosphate]",–,–,85,10,8,half-life at 2 µM [6]: > 1580 min
